Earlier results as cited in patent US6759063B2, “Methods and compositions for reducing sympathomimetic-induced side effects” (priority 1999, dated 2004).

How the values were obtained:
[1] = tested on: human alpha1-adrenoceptors; settings: up to the highest concentration that could be tested
[2] = tested on: cloned human alpha1A- and alpha1B-adrenoceptors; settings: phenylephrine-stimulated; cloned receptors
[3] = rodents and humans
[4] = separate studies
[5] = 150 mg/day; obese outpatients

## CC[C@H](CC[C@@H](C)[C@H]1CC[C@H]2[C@@H]3CC=C4C[C@@H](O)CC[C@]4(C)[C@H]3CC[C@]12C)C(C)C [beta-sitosterol]
[1]
  inhibition of radioligand binding to human alpha1-adrenoceptors: without consistent inhibitory effect
[2]
  inhibition of agonist-induced [3H]inositol phosphate formation: without consistent inhibitory effect

## Cn1c(=O)c2c(ncn2C)n(C)c1=O [caffeine]
[3]
  thermogenic and anti-obesity properties: no effect

## CCN[C@@H](C)Cc1cccc(C(F)(F)F)c1 [dexfenfluramine]
[4]
  weight loss in obese patients: promote weight loss

## CN[C@@H](C)[C@H](O)c1ccccc1 [ephedrine]
[3]
  thermogenic and anti-obesity properties: potent thermogenic and anti-obesity properties
[5]
  adverse side effects versus placebo group: significantly greater adverse side effects
